Data on 34 compounds can be found in patent US7842808B2, “Anti-migraine spirocycles” (Bristol-Myers Squibb Company, priority 2002, dated 2010).

Some results are limits rather than exact numbers.

The assay deals with T1, CGRP receptor (SK-N-MC cell membranes) (Homo sapiens, UniProt O60894+Q16602).
T1 construct: endogenous in cells; host or cells: SK-N-MC cells (membrane homogenate)
T1 sequence (Q16602 23-461): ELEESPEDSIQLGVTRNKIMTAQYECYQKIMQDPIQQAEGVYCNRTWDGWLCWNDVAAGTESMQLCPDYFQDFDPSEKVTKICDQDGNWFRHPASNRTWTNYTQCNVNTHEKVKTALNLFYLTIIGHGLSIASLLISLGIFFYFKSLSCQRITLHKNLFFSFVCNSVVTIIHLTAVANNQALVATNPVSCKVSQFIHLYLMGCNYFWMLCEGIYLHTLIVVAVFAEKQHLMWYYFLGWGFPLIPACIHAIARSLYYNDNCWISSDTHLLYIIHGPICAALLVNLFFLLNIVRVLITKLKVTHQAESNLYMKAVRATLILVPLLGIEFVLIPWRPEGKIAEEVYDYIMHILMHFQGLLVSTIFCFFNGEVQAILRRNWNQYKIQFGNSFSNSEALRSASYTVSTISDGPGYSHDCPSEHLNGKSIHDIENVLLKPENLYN
T1 sequence (O60894 27-148): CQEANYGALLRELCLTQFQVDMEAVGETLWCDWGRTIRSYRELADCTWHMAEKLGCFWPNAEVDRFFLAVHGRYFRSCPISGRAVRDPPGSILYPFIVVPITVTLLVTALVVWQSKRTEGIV
As to the kind of experiment: CGRP Binding Assay ([125I]-CGRP radioligand binding, SK-N-MC homogenate). The conditions noted are these: displacement of [125I]-CGRP, SK-N-MC homogenate; read-out: CGRP binding IC50. On the procedure: Tissue Culture. SK-N-MC cells were grown at 37° C. in 5% CO2 as a monolayer in medium consisting of MEM with Earle's salts and L-glutamine (Gibco) supplemented with 10% fetal bovine serum (Gibco).
Cell Pellets. […] The cells were transferred from plates to polypropylene tubes (16×100 mm) and homogenized using a polytron. Homogenates were centrifuged at 32,000×g for 30 min. The pellets were resuspended in cold hypotonic lysis buffer with 0.1% mammalian protease inhibitor cocktail (Sigma) and assayed for protein concentration. The SK-N-MC homogenate was then aliquoted and stored at −80° C. until needed.
Radioligand Binding Assay. The compounds of invention were solubilized and carried through serial dilutions using 100% DMSO. Aliquots from the compound serial dilutions were further diluted 25 fold into assay buffer (50 mM Tris-Cl pH 7.5, 5 mM MgCl2, 0.005% Triton X-100) and transferred (volume 50 μl) into 96 well assay plates. […] SK-N-MC pellets were thawed, diluted in assay buffer with fresh 0.1% mammalian protease inhibitor cocktail (Sigma), and homogenized again. SK-N-MC homogenate (5 μg/well) was added in a volume of 100 μl. The assay plates were then incubated at room temperature for 2 h. Assays were stopped by addition of excess cold wash buffer (20 mM Tris-Cl pH 7.5, 0.1% BSA) immediately followed by filtration over glass fiber filters (Whatman GF/B) previously soaked in 0.5% PEI. Non-specific binding was defined with 1 μM beta-CGRP. Protein bound radioactivity was determined using a gamma or scintillation counter.
Take `O=C(N[C@@H](CC(=O)N1CCC(N2Cc3ccccc3NC2=O)CC1)C(=O)N1CCC(N2CCCCC2)CC1)C1CC1` [Example 103]: the concentration for half-maximal inhibition (IC50) was 100 to 1000 nM. In the case of `O=C(Nc1ccccc1-c1ccccc1)N[C@@H](CC(=O)N1CCC(N2Cc3ccccc3NC2=O)CC1)C(=O)N1CCC(N2CCCCC2)CC1` [Example 197], the half-inhibitory concentration (IC50) lay in the range of 100 to 1000 nM. As for `Cc1cc(CC(NC(=O)N2CCC(N3Cc4ccccc4NC3=O)CC2)C(=O)OC2CCCCC2)cc2cn[nH]c12` (stereo not shown) [Example 41a, 3-(7-Methyl-1H-indazol-5-yl)-2-{[4-(2-oxo-1,4-dihydro-2H-quinazolin-3-yl)-piperidine-1-carbonyl]-amino}-propionic acid cyclohexyl ester], the IC50 fell in the range of 10 to 100 nM. In the case of `O=C(Nc1ccc(Oc2ccccc2)cc1)N[C@@H](CC(=O)N1CCC(N2Cc3ccccc3NC2=O)CC1)C(=O)N1CCC(N2CCCCC2)CC1` [Example 146], the IC50 was in the range of 10 to 100 nM. In the case of `O=C(N[C@@H](CC(=O)N1CCC(N2Cc3ccccc3NC2=O)CC1)C(=O)N1CCC(N2CCCCC2)CC1)c1ccccc1` [Example 110], the IC50 was in the range of 100 to 1000 nM. As for `O=C(Nc1ccc(C(F)(F)F)cc1)N[C@@H](CC(=O)N1CCC(N2Cc3ccccc3NC2=O)CC1)C(=O)N1CCC(N2CCCCC2)CC1` [Example 160], the figure is 100 to 1000 nM.

`O=C(N[C@@H](CC(=O)N1CCC(N2Cc3ccccc3NC2=O)CC1)C(=O)N1CCC(N2CCCCC2)CC1)c1cc(F)cc(F)c1` [Example 122]: the half-inhibitory concentration (IC50) was in the range of 100 to 1000 nM. For `O=C1Cc2cc(C[C@@H](NC(=O)N3CCC(N4Cc5ccccc5NC4=O)CC3)C(=O)N3CCC(N4CCCCC4)CC3)ccc2N1` [Example 50, (R)-4-(2-Oxo-1,4-dihydro-2H-quinazolin-3-yl)-piperidine-1-carboxylic acid[2-[1,4′]bipiperidinyl-1′-yl-2-oxo-1-(2-oxo-2,3-dihydro-1H-indol-5-ylmethyl)-ethyl]-amide], the IC50 is < 10 nM.

Take `O=C(N[C@@H](CC(=O)N1CCC(N2Cc3ccccc3NC2=O)CC1)C(=O)N1CCC(N2CCCCC2)CC1)c1ccc(Cl)c(Cl)c1` [Example 111]: the IC50 lay within 100 to 1000 nM. As for `O=C(N[C@@H](CC(=O)N1CCC(N2Cc3ccccc3NC2=O)CC1)C(=O)N1CCC(N2CCCCC2)CC1)c1ccc2c(c1)OCO2` [Example 114], the figure is 100 to 1000 nM. For the compound `Cc1ccccc1NC(=O)N[C@@H](CC(=O)N1CCC(N2Cc3ccccc3NC2=O)CC1)C(=O)N1CCC(N2CCCCC2)CC1` [Example 141], the IC50 lay within 100 to 1000 nM. For `Cc1cc(C)c(NC(=O)N[C@@H](CC(=O)N2CCC(N3Cc4ccccc4NC3=O)CC2)C(=O)N2CCC(N3CCCCC3)CC2)cc1C` [Example 139], the IC50 is 100 to 1000 nM. As for `CCC(CN1CCN(C(=O)C(Cc2ccc3[nH]ncc3c2)NC(=O)N2CCC(N3Cc4ccccc4NC3=O)CC2)CC1)C(C)C` (stereo not shown) [Example 40i], the figure is 10 to 100 nM; as for `O=C(O)C(Cc1ccc2[nH]ncc2c1)NC(=O)N1CCC(N2Cc3ccccc3NC2=O)CC1` (racemic) [Example 1, (±)-3-(1H-Indazol-5-yl)-2-{[4-(2-oxo-1,4-dihydro-2H-quinazolin-3-yl)-piperidine-1-carbonyl]-amino}-propionic acid], 100 to 1000 nM.

For `O=C(Nc1cccc(Br)c1)N[C@@H](CC(=O)N1CCC(N2Cc3ccccc3NC2=O)CC1)C(=O)N1CCC(N2CCCCC2)CC1` [Example 176], the IC50 is 10 to 100 nM. On to `COc1ccc(NC(=O)N[C@@H](CC(=O)N2CCC(N3Cc4ccccc4NC3=O)CC2)C(=O)N2CCC(N3CCCCC3)CC2)c(OC)c1` [Example 155], for which the concentration for half-maximal inhibition (IC50) fell in the range of 100 to 1000 nM. For the compound `O=C(NC(Cc1ccc2[nH]ncc2c1)C(=O)N1CCN(C/C=C/c2ccccc2)CC1)N1CCC(N2Cc3ccccc3NC2=O)CC1` (stereo not shown) [Example 40j], the IC50 is > 1000 nM. Regarding `O=C(Nc1cc(Cl)nc(Cl)c1)N[C@@H](CC(=O)N1CCC(N2Cc3ccccc3NC2=O)CC1)C(=O)N1CCC(N2CCCCC2)CC1` [Example 164], the IC50 lay within 100 to 1000 nM. In the case of `O=C(N[C@@H](CC(=O)N1CCC(N2Cc3ccccc3NC2=O)CC1)C(=O)N1CCC(N2CCCCC2)CC1)c1cc2ccccc2s1` [Example 126], the IC50 lay within 100 to 1000 nM. As for `O=C(C[C@H](NC(=O)n1c2ccccc2c2ccccc21)C(=O)N1CCC(N2CCCCC2)CC1)N1CCC(N2Cc3ccccc3NC2=O)CC1` [Example 115], the IC50 is 100 to 1000 nM. In the case of `C[C@@H](NC(=O)N[C@@H](CC(=O)N1CCC(N2Cc3ccccc3NC2=O)CC1)C(=O)N1CCC(N2CCCCC2)CC1)c1ccccc1` [Example 198], the IC50 fell in the range of 100 to 1000 nM. As for `Cc1ccc(C)c(NC(=O)N[C@@H](CC(=O)N2CCC(N3Cc4ccccc4NC3=O)CC2)C(=O)N2CCC(N3CCCCC3)CC2)c1` [Example 157], the half-maximal inhibitory concentration (IC50) is 100 to 1000 nM. For the compound `CC(=O)c1cccc(NC(=O)N[C@@H](CC(=O)N2CCC(N3Cc4ccccc4NC3=O)CC2)C(=O)N2CCC(N3CCCCC3)CC2)c1` [Example 147], the IC50 lay in the range of 100 to 1000 nM. Turning to `O=C(N[C@@H](CC(=O)N1CCC(N2Cc3ccccc3NC2=O)CC1)C(=O)N1CCC(N2CCCCC2)CC1)c1cccc(Cl)c1` [Example 129], the IC50 fell in the range of 100 to 1000 nM.

Regarding `COc1ccc(Cl)cc1NC(=O)N[C@@H](CC(=O)N1CCC(N2Cc3ccccc3NC2=O)CC1)C(=O)N1CCC(N2CCCCC2)CC1` [Example 187], the IC50 lay within 100 to 1000 nM. As to `O=C(Nc1ccc(F)c(F)c1F)N[C@@H](CC(=O)N1CCC(N2Cc3ccccc3NC2=O)CC1)C(=O)N1CCC(N2CCCCC2)CC1` [Example 168], the IC50 fell in the range of 100 to 1000 nM. As for `O=C(Nc1ccc(Cl)cc1Cl)N[C@@H](CC(=O)N1CCC(N2Cc3ccccc3NC2=O)CC1)C(=O)N1CCC(N2CCCCC2)CC1` [Example 161], the IC50 lay within 10 to 100 nM. As for `Cc1cccc(CN[C@@H](CC(=O)N2CCC(N3Cc4ccccc4NC3=O)CC2)C(=O)N2CCC(N3CCCCC3)CC2)c1` [Example 95, (L)-1-[1,4′]Bipiperidinyl-1′-yl-2-((3′-methyl-phenyll)-methyl-amino)-4-[4-(2-oxo-1,4-dihydro-2H-quinazolin-3-yl)-piperidin-1-yl]-butane-1,4-dione], the figure is 100 to 1000 nM; as for `O=C(N[C@@H](CC(=O)N1CCC(N2Cc3ccccc3NC2=O)CC1)C(=O)N1CCC(N2CCCCC2)CC1)Oc1ccccc1` [Example 130], 100 to 1000 nM. Consider `CC(=O)N[C@@H](CC(=O)N1CCC(N2Cc3ccccc3NC2=O)CC1)C(=O)N1CCC(N2CCCCC2)CC1` [Example 120], for which the IC50 lay within 100 to 1000 nM. With `O=C(Nc1cccc(Cl)c1Cl)N[C@@H](CC(=O)N1CCC(N2Cc3ccccc3NC2=O)CC1)C(=O)N1CCC(N2CCCCC2)CC1` [Example 148] the figure was 10 to 100 nM.

Turning to `CC(C)c1ccc(NC(=O)N[C@@H](CC(=O)N2CCC(N3Cc4ccccc4NC3=O)CC2)C(=O)N2CCC(N3CCCCC3)CC2)cc1` [Example 162], the concentration for half-maximal inhibition (IC50) lay within 100 to 1000 nM. On to `Cc1cc(CC(NC(=O)N2CCC3(CC2)OC(=O)Nc2ccccc23)C(=O)NC2C3CC4CC(C3)CC2C4)cc2cn[nH]c12` (racemic) [Example 28, (±)-[1-(2-adamantyl-carbamoyl)-2-(7-methyl-1H-indazol-5-yl)-ethyl]-1′,2′-dihydro-2′-oxospiro-[4H-3′,1-benzoxazine-4,4′-piperidine]-1-carboxamide], for which the 50% inhibitory concentration (IC50) was 100 to 1000 nM. On to `O=C(Cc1ccccc1)N[C@@H](CC(=O)N1CCC(N2Cc3ccccc3NC2=O)CC1)C(=O)N1CCC(N2CCCCC2)CC1` [Example 106], for which the IC50 is 100 to 1000 nM.
